The text below walks through data of patent US12052991B2, “Substituted pyridinyloxybenzenes and salts thereof and use thereof as herbicidal agents” (Bayer Aktiengesellschaft, priority 2018, dated 2024).

Common to all, as to type: in vivo
Test [1] deals with Amaranthus retroflexus (AMARE). The experiment in a line: Herbicidal post-emergence action (Table B6). As to conditions: dosage 1280 g/ha; visual rating about 3 weeks after treatment; 100% = plants have died, 0% = like control plants. The method in brief:
(§1)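 Visual percent activity relative to untreated controls (100% = plants dead, 0% = like controls) was scored about 3 weeks after treatment. Plants had been sprayed at the one-leaf stage with formulated compound at 1280 or 320 g/ha in 600 L/ha water containing 0.5% additive.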

In test [2] the test system is Lolium rigidum (LOLRI). The experiment in a line: Herbicidal pre-emergence action, test C (Table C2). As to conditions: dosage 1280 g/ha; visual scoring after about 3 weeks; 100% = plants have died, 0% = like control plants. In outline: (§2)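 Seeds are covered with sandy loam, and the formulated compound is applied to the soil surface before emergence at 1280 or 320 g/ha. Spray carries 0.5% additive at 600 L/ha. Damage is rated visually as percent versus untreated pots after roughly 3 weeks.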

Test [3] relates to Lolium rigidum (LOLRI). The experiment in a line: Herbicidal post-emergence action (Table B2). As to conditions: 1280 g/ha; rated visually after about 3 weeks; 100% = plants have died, 0% = like control plants. The procedure:
(§3) Seeds of mono- and dicotyledonous weed plants were placed in plastic pots in sandy loam soil (doubly sown with in each case one species of mono- or dicotyledonous weed plants per pot), covered with soil and cultivated in a greenhouse under controlled growth conditions. 2 to 3 weeks after sowing, the test plants were treated at the one-leaf stage. The compounds of the invention, formulated in the form of wettable powders (WP) or as emulsion concentrates (EC), were applied onto the green parts of the plants as aqueous suspension or emulsion with addition of 0.5% additive at a water application rate of 600 liters per hectare (converted). After the test plants had been kept in the greenhouse under optimum growth conditions for about 3 weeks, the activity of the preparations was rated visually in comparison to untreated controls. For example, 100% activity=the plants have died, 0% activity=like control plants. Tables B1 to B12 below show the effects of selected compounds of the general formula (I) according to Table 1 on various harmful plants and an application rate corresponding to 1280 or 320 g/ha, which were obtained by the experimental procedure mentioned above.

Test [4] deals with Setaria viridis (SETVI). The experiment in a line: Herbicidal pre-emergence action, test C (Table C4). As to conditions: visual scoring after about 3 weeks, 100% = plants have died, 0% = like control plants. In outline: as §2
In test [5] the test system is harmful plants ABUTH, AMARE, ECHCG, LOLRI, MATIN, POAAN, SETVI, STEME, ALOMY, DIGSA, KCHSC and VERPE. The experiment in a line: Herbicidal pre-emergence action (test C), summary of Tables C1-C12. As to conditions: application rate of 1280 or 320 g of active ingredient per hectare; summary in words. In outline:
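Pre-emergence pot test in sandy loam: WP or EC formulations were sprayed onto the covering soil with 0.5% additive at 600 L/ha water, at 1280 or 320 g/ha. Plants were kept in the greenhouse, and activity was rated visually about 3 weeks later as % versus untreated controls (100% = dead).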

Test [6] deals with Setaria viridis (SETVI). The experiment in a line: Herbicidal post-emergence action (Table B4). As to conditions: rated visually after about 3 weeks, 100% = plants have died, 0% = like control plants. The procedure: as §3
Test [7] has as its system Poa annua (POAAN). The experiment in a line: Herbicidal post-emergence action (Table B3). As to conditions: rated visually after about 3 weeks, 100% = plants have died, 0% = like control plants. In outline: as §1
Test [8] deals with Abutilon theophrasti (ABUTH). Put plainly: Herbicidal post-emergence action (Table B5). As to conditions: rated visually after about 3 weeks, 100% = plants have died, 0% = like control plants. In outline: as §1
Test [9] concerns Echinochloa crus-galli (ECHCG). The experiment in a line: Herbicidal post-emergence action (Table B1). As to conditions: rated visually after about 3 weeks, 100% = plants have died, 0% = like control plants. The method in brief:
as §1

For test [10], the system named is Abutilon theophrasti (ABUTH). Put plainly: Herbicidal pre-emergence action, test C (Table C5). As to conditions: visual scoring after about 3 weeks, 100% = plants have died, 0% = like control plants. The method in brief:
as §2

Test [11] concerns Poa annua (POAAN). Put plainly: Herbicidal pre-emergence action, test C (Table C3). As to conditions: visual scoring after about 3 weeks, 100% = plants have died, 0% = like control plants. The method in brief: as §2
In test [12] the test system is harmful plants ABUTH, AMARE, ECHCG, LOLRI, MATIN, POAAN, SETVI, STEME, ALOMY, DIGSA, KCHSC and VERPE. Put plainly: Herbicidal post-emergence action, summary of Tables B1-B12. As to conditions: application rate of 1280 or 320 g of active ingredient per hectare; summary in words. In outline:
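Greenhouse weeds in sandy loam treated post-emergence at the one-leaf stage, 2–3 weeks after sowing, with WP or EC formulations sprayed with 0.5% additive at 600 L/ha water, 1280 or 320 g/ha. Damage rated visually after about 3 weeks versus untreated controls (0% = like control, 100% = dead).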

The subject of test [13] is Amaranthus retroflexus (AMARE). Put plainly: Herbicidal pre-emergence action, test C (Table C6). As to conditions: visual scoring after about 3 weeks, 100% = plants have died, 0% = like control plants. The method in brief:
as §2

The subject of test [14] is Matricaria inodora (MATIN). The experiment in a line: Herbicidal pre-emergence action, test C (Table C7). As to conditions: dosage 1280 g/ha; visual scoring after about 3 weeks; 100% = plants have died, 0% = like control plants. In outline:
as §2

The next test deals with Stellaria media (STEME). The experiment in a line: Herbicidal post-emergence action (Table B8). As to conditions: visual rating about 3 weeks after treatment, 100% = plants have died, 0% = like control plants. The method in brief: as §1

Take `Fc1cccc(Oc2ncc(Cl)cc2Cl)c1-c1cc(C(F)F)no1` [Example 1-21]: in test [1], the “Post-emergence action against Amaranthus retroflexus (AMARE)” value is recorded as 90%. Also, the “Pre-emergence action against Lolium rigidum (LOLRI)” value with Lolium rigidum (LOLRI) [2] came out at 100%. Also, the “Post-emergence action against Lolium rigidum (LOLRI)” value in the test with Lolium rigidum (LOLRI) [3] is recorded as 100%. The “Pre-emergence action against Setaria viridis (SETVI)” value with Setaria viridis (SETVI) [4] (dosage 320 g/ha) and in the test with Setaria viridis (SETVI) [4] (dosage 1280 g/ha) was 100% each time. Also, in [5], the “herbicidal activity against the harmful plants of Tables C1-C12 in pre-emergence treatment” value was “very good herbicidal activity”. In addition, the “Post-emergence action against Setaria viridis (SETVI)” value was determined as 90% with Setaria viridis (SETVI) [6] (320 g/ha) and 100% with Setaria viridis (SETVI) [6] (1280 g/ha). Besides, the “Post-emergence action against Poa annua (POAAN)” value with Poa annua (POAAN) [7] (320 g/ha) and in the test with Poa annua (POAAN) [7] (1280 g/ha) was 100% in each case. Further, the “Post-emergence action against Abutilon theophrasti (ABUTH)” value in test [8] (320 g/ha) and in test [8] (1280 g/ha) was 100% throughout. Moreover, the “Post-emergence action against Echinochloa crus-galli (ECHCG)” value in test [9] (320 g/ha) and in test [9] (1280 g/ha) was 100% each time. Also, the “Pre-emergence action against Abutilon theophrasti (ABUTH)” value in test [10] (dosage 320 g/ha) and in test [10] (dosage 1280 g/ha) was 90% throughout. Besides, the “Pre-emergence action against Poa annua (POAAN)” value in the test on Poa annua (POAAN) [11] (dosage 320 g/ha) and with Poa annua (POAAN) [11] (dosage 1280 g/ha) was 100% throughout. In addition, the “herbicidal activity against the harmful plants of Tables B1-B12 in post-emergence treatment” value in [12] is “very good herbicidal activity”. The “Pre-emergence action against Amaranthus retroflexus (AMARE)” value in [13] (dosage 320 g/ha) and in test [13] (dosage 1280 g/ha) was 100% each time. In addition, the “Pre-emergence action against Matricaria inodora (MATIN)” value in [14] is reported as 90%. For the same molecule, the “Post-emergence action against Stellaria media (STEME)” value in the test with Stellaria media (STEME) (dosage 320 g/ha) and in the test on Stellaria media (STEME) (dosage 1280 g/ha) was 100% throughout.
